Assays:
[1] = Clinical interaction studies (grapefruit, enzyme-inducing AEDs); assay type: in vivo, human
[2] = human plasma following oral administration; cited from earlier work
rats = test: Intravenous ganaxolone in rats: EEG and status epilepticus models; assay type: in vivo
dogs = test: Cardiovascular parameters in dogs after a single dose; assay type: in vivo; conditions: single dose of up to 15 mg/kg
female rats = test: Pulmonary effects in female rats; assay type: in vivo; conditions: doses up to 40 mg/kg
Excerpt: There was a physiologically normal shortening of the PR and QT interval in response to the higher heart rate. There was no effect on QRS duration or QTc interval.

## CC(=O)[C@H]1CC[C@H]2[C@@H]3CC[C@H]4C[C@](C)(O)CC[C@]4(C)[C@H]3CC[C@]12C [Ganaxolone, 3α-hydroxy-3β-methyl-5α-pregnan-20-one]
[1]; healthy volunteers, adults
  effect of grapefruit on exposure: increased the exposure
[1]; patients
  ganaxolone levels with concomitant enzyme-inducing AEDs: reduced
[2]
  half-life: approximately 20 hours
rats
  EEG effect in otherwise normal rats: induce burst suppression-like electroencephalogram (EEG) patterns
rats; caused a sedative response
  sedative/anesthetic response: did not cause a full anesthetic response
Mutagenicity
  mutagenicity: No potential for mutagenicity was detected
dogs
  area under the concentration time curve (AUC)(0-24): 10000 n·gh/mL
  effect on cardiovascular parameters: no effect
Female rats
  pulmonary effects: No pulmonary effects

Source: patent US11980625B2, “Ganaxolone for use in treating tuberous sclerosis complex” (Marinus Pharmaceuticals, Inc., priority 2019, dated 2024)
